Molecules are shown by their SMILES.

The results in this text go back to US20230295119A1, “SUBSTITUTED PYRIDINES FOR THE TREATMENT OF INFLAMMATORY DISEASES” (GOSSAMER BIO SERVICES, INC., priority 2020, published 2023).

Experiment [1] addresses human JAK1 (Homo sapiens (Human), UniProt P23458). Put plainly: JAK1 TR-FRET kinase assay. The experiment is classed as biochemical. The following applies: TR-FRET, JAK1 2.5 nM. (In TR-FRET formats the signal depends on donor and acceptor labels being close together.)
In experiment [2] the target is human JAK2 (Homo sapiens (Human), UniProt O60674). Put plainly: JAK2 TR-FRET kinase assay. In kind it is biochemical. The following applies: JAK2 0.025 nM.
The target of experiment [3] is TYK2 JH2 domain (Homo sapiens (Human), UniProt P29597). Put plainly: TYK2 JH2 NanoBRET assay. The experiment is classed as binding. Particulars: Table 20, read-out: TYK2 IC50. Summed up:
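HEK293T cells transiently expressing NanoLuc-TYK2 JH2 fusion, incubated 2 h with compound and NanoBRET K10 tracer (0.5 µM final). Target engagement read as acceptor/donor BRET ratio after Nano-Glo substrate plus extracellular NanoLuc inhibitor.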
For orientation: In BRET a luciferase serves as donor, and the signal depends on an acceptor being close.

Experiment [4] deals with human JAK3 (Homo sapiens (Human), UniProt P52333). Put plainly: JAK3 TR-FRET kinase assay. In kind it is biochemical. Particulars: JAK3 0.0125 nM.
Chain of human JAK3 (P52333 whole entry): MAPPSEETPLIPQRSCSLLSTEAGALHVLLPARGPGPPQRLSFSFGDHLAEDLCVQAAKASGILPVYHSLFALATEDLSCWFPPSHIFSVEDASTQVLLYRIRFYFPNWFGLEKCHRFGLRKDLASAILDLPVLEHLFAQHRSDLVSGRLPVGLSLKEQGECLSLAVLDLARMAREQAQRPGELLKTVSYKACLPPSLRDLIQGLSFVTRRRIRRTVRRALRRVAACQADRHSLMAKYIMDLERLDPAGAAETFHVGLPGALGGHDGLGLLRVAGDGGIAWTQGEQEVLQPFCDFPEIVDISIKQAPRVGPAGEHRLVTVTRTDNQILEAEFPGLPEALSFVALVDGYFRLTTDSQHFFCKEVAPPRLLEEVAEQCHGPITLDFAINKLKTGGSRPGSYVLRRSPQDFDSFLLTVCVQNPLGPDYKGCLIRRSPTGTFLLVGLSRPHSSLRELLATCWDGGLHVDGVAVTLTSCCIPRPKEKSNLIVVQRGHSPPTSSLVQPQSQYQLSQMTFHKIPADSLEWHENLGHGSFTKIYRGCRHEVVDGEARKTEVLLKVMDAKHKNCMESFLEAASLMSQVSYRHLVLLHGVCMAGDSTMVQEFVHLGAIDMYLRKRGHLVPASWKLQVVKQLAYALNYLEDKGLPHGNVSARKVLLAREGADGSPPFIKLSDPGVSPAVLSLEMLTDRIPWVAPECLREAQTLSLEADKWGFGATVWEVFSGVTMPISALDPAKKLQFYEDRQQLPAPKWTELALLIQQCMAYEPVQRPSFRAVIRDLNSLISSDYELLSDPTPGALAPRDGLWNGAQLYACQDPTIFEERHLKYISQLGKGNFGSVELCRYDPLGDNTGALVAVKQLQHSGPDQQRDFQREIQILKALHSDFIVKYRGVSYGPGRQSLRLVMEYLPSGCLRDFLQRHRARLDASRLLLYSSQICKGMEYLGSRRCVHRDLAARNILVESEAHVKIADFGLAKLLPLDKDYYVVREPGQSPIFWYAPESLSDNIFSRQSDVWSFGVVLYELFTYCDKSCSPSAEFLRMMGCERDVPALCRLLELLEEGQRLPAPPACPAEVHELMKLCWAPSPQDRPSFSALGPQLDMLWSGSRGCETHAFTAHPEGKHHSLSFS

Chain of human JAK1 (P23458 whole entry): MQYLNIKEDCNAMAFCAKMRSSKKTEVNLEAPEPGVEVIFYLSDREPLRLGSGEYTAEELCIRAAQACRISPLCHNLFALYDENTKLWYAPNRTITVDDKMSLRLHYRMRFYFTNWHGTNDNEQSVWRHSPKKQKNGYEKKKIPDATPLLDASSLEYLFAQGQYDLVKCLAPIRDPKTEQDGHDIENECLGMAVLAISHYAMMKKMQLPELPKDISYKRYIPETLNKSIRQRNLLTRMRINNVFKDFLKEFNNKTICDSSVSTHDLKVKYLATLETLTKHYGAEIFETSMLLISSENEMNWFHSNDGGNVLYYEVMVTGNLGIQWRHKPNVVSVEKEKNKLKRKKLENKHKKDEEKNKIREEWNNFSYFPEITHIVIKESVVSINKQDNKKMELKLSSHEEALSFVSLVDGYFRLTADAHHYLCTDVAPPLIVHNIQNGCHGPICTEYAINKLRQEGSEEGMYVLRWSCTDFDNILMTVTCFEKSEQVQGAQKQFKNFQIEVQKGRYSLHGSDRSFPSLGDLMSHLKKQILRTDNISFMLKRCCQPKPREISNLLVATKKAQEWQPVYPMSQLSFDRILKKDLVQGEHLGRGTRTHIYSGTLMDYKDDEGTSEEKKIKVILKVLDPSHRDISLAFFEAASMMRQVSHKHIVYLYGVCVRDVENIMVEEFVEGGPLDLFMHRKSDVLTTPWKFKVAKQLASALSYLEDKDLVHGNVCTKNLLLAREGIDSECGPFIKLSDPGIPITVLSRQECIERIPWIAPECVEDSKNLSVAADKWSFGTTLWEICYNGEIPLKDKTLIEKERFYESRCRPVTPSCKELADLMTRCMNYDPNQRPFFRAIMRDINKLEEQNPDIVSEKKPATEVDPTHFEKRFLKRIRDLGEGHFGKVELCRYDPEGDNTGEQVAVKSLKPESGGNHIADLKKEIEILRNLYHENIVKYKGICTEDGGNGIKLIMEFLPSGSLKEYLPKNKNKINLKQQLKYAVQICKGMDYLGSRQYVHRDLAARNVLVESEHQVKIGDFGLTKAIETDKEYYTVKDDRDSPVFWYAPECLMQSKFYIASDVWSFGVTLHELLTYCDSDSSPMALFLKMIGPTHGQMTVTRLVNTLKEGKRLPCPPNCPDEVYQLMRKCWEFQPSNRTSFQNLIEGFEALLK
Chain of human JAK2 (O60674 whole entry, the tested form may be a part): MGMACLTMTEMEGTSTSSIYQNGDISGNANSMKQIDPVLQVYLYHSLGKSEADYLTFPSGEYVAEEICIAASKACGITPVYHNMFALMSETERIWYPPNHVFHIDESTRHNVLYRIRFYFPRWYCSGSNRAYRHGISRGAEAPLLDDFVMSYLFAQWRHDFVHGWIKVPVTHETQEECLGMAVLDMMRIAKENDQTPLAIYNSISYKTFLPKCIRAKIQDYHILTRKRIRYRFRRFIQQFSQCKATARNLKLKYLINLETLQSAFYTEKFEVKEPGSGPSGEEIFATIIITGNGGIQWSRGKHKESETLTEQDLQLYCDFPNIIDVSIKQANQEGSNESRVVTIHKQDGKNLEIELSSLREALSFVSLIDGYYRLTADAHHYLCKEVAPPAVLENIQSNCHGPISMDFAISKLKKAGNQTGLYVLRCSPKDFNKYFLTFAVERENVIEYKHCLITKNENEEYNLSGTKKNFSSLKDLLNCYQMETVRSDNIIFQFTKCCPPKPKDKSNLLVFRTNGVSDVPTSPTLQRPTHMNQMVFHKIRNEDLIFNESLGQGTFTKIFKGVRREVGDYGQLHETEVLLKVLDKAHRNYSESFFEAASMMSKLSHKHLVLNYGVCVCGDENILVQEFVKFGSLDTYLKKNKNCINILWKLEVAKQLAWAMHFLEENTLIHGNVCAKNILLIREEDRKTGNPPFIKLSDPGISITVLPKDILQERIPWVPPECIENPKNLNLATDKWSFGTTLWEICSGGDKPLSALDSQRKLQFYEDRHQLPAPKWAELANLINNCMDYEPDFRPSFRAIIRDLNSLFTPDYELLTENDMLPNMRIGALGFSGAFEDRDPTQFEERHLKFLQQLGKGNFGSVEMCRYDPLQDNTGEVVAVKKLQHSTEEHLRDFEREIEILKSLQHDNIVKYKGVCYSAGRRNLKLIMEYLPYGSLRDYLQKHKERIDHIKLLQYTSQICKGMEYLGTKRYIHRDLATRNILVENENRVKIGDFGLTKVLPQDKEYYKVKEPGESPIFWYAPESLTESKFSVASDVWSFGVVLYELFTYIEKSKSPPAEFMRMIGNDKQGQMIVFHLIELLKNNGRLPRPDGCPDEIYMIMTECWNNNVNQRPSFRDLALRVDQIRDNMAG
Chain of TYK2 JH2 domain (P29597 589-875): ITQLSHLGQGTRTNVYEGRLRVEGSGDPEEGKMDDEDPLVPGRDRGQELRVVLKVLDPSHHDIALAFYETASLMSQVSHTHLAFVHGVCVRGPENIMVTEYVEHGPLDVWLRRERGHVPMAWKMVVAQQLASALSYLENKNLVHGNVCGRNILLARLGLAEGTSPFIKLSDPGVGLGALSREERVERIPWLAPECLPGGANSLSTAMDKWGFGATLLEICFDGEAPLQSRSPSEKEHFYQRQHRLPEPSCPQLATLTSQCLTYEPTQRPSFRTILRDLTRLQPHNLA

A word on the IC50: it is the concentration that inhibits the measured activity by half. With `CCC(=O)c1cnc(Nc2cnc(C(F)(F)CN(C)C)cn2)cc1Nc1cccc(-c2ncn(C)n2)c1OC` [Compound 19C], the IC50 in experiment [1] is ≥ 500 nM; in experiment [2], ≥ 500 nM; in experiment [3], 5 to 50 nM; in experiment [4], ≥ 500 nM.
For the compound `CCC(=O)c1cnc(Nc2cnc(C(F)(F)CO)cn2)cc1Nc1cccc(-c2ncn(C)n2)c1OC` [Compound 19D], the IC50 in experiment [1] was ≥ 500 nM; in experiment [2] it was ≥ 500 nM; in experiment [3] it was 5 to 50 nM; in experiment [4] it was ≥ 500 nM.
With `CCC(=O)c1cnc(Nc2cnc(C(F)(F)CN3CCCC3)cn2)cc1Nc1cccc(-c2ncn(C)n2)c1OC` [Compound 19E], the IC50 in experiment [1] was ≥ 500 nM; in experiment [2], ≥ 500 nM; in experiment [3], 5 to 50 nM; in experiment [4], ≥ 500 nM.
In the case of `CCC(=O)c1cnc(Nc2ccn(-c3ccccc3)c(=O)n2)cc1Nc1cccc(-c2ncn(C)n2)c1OC` [Compound 20A, 4-((4-((2-methoxy-3-(1-methyl-1H-1,2,4-triazol-3-yl)phenyl)amino)-5-propionylpyridin-2-yl)amino)-1-phenylpyrimidin-2(1H)-one], the IC50 is ≥ 500 nM in experiment [1], ≥ 500 nM in experiment [2], < 5 nM in experiment [3] and ≥ 500 nM in experiment [4].
Regarding `CCC(=O)c1cnc(Nc2ccn([C@H]3C[C@@H](OC)C3)n2)cc1Nc1cccc(-c2ncn(C)n2)c1OC` [Compound 21A, 1-(4-((2-methoxy-3-(1-methyl-1H-1,2,4-triazol-3-yl)phenyl)amino)-6-((1-(3-methoxycyclobutyl)-1H-pyrazol-3-yl)amino)pyridin-3-yl)propan-1-one], the IC50 in experiment [1] is ≥ 500 nM; in experiment [2], ≥ 500 nM; in experiment [3], 5 to 50 nM; in experiment [4], ≥ 500 nM.
As to `CCC(=O)c1cnc(Nc2cc(OCCO)n(C)n2)cc1Nc1cccc(-c2ncn(C)n2)c1OC` [Compound 21AA], the IC50 in experiment [1] is ≥ 500 nM; in experiment [2] it was ≥ 500 nM; in experiment [3], 5 to 50 nM; in experiment [4] it was 50 to 500 nM.
As to `CCC(=O)c1cnc(Nc2ccn([C@H]3C[C@@H](OC(F)F)C3)n2)cc1Nc1cccc(-c2ncn(C)n2)c1OC` [Compound 21BB], the IC50 in experiment [1] was ≥ 500 nM; in experiment [2], ≥ 500 nM; in experiment [3], < 5 nM; in experiment [4], ≥ 500 nM.
For the compound `CCC(=O)c1cnc(Nc2ccn(CCOC)n2)cc1Nc1cccc(-c2ncn(C)n2)c1OC` [Compound 21B], the IC50 in experiment [1] was ≥ 500 nM; in experiment [2], ≥ 500 nM; in experiment [3], 5 to 50 nM; in experiment [4], ≥ 500 nM.
Take `CCO[C@H]1C[C@@H](n2ccc(Nc3cc(Nc4cccc(-c5ncn(C)n5)c4OC)c(C(=O)CC)cn3)n2)C1` [Compound 21CC]: the IC50 in experiment [1] was ≥ 500 nM; in experiment [2], ≥ 500 nM; in experiment [3] it was 5 to 50 nM; in experiment [4] it was ≥ 500 nM.
Consider `CCC(=O)c1cnc(Nc2ccn(CCN3CCCC3)n2)cc1Nc1cccc(-c2ncn(C)n2)c1OC` [Compound 21C], for which the IC50 in experiment [1] is ≥ 500 nM; in experiment [2], ≥ 500 nM; in experiment [3] it was 5 to 50 nM; in experiment [4], ≥ 500 nM.
For `CCC(=O)c1cnc(Nc2cc(C)n([C@H]3C[C@@H](O)C3)n2)cc1Nc1cccc(-c2ncn(C)n2)c1OC` [Compound 21DD], the IC50 is ≥ 500 nM in experiment [1], ≥ 500 nM in experiment [2], 5 to 50 nM in experiment [3] and ≥ 500 nM in experiment [4].
On to `CCC(=O)c1cnc(Nc2ccn(S(=O)(=O)C3CC3)n2)cc1Nc1cccc(-c2ncn(C)n2)c1OC` [Compound 21D], for which the IC50 was ≥ 500 nM in experiment [1], ≥ 500 nM in experiment [2], 5 to 50 nM in experiment [3] and ≥ 500 nM in experiment [4].
For `CCC(=O)c1cnc(Nc2cc(C)n([C@H]3C[C@@H](OC)C3)n2)cc1Nc1cccc(-c2ncn(C)n2)c1OC` [Compound 21EE], the IC50 in experiment [1] was ≥ 500 nM; in experiment [2], ≥ 500 nM; in experiment [3], < 5 nM; in experiment [4], ≥ 500 nM.
For the compound `CCC(=O)c1cnc(Nc2ccn(-c3ccccn3)n2)cc1Nc1cccc(-c2ncn(C)n2)c1OC` [Compound 21E], the IC50 in experiment [1] was ≥ 500 nM; in experiment [2], ≥ 500 nM; in experiment [3], < 5 nM; in experiment [4], ≥ 500 nM.
Regarding `CCO[C@H]1C[C@@H](n2nc(Nc3cc(Nc4cccc(-c5ncn(C)n5)c4OC)c(C(=O)CC)cn3)cc2C)C1` [Compound 21FF], the IC50 in experiment [1] was ≥ 500 nM; in experiment [2], ≥ 500 nM; in experiment [3], < 5 nM; in experiment [4] it was ≥ 500 nM.
As for `CCC(=O)c1cnc(Nc2csc(CN3CCCC3)n2)cc1Nc1cccc(-c2ncn(C)n2)c1OC` [Compound 21F], the IC50 in experiment [1] was ≥ 500 nM; in experiment [2] it was ≥ 500 nM; in experiment [3], 5 to 50 nM; in experiment [4], ≥ 500 nM.
As for `CCC(=O)c1cnc(Nc2ccn(C3CC(F)(F)C3)n2)cc1Nc1cccc(-c2ncn(C)n2)c1OC` [Compound 21GG], the IC50 in experiment [1] is ≥ 500 nM; in experiment [2] it was ≥ 500 nM; in experiment [3], 5 to 50 nM; in experiment [4], ≥ 500 nM.
With `CCC(=O)c1cnc(Nc2cc(CN3CCCC3)n(C)n2)cc1Nc1cccc(-c2ncn(C)n2)c1OC` [Compound 21G], the IC50 in experiment [1] is ≥ 500 nM; in experiment [2], 50 to 500 nM; in experiment [3], < 5 nM; in experiment [4], 50 to 500 nM.
For the compound `CCC(=O)c1cnc(Nc2nc(CN3CCCC3)ns2)cc1Nc1cccc(-c2ncn(C)n2)c1OC` [Compound 21H], the IC50 was ≥ 500 nM in experiment [1], ≥ 500 nM in experiment [2], 50 to 500 nM in experiment [3] and ≥ 500 nM in experiment [4].
For the compound `CCC(=O)c1cnc(Nc2cc(CN3CCCC3)sn2)cc1Nc1cccc(-c2ncn(C)n2)c1OC` [Compound 21I], the IC50 in experiment [1] was ≥ 500 nM; in experiment [2], 50 to 500 nM; in experiment [3] it was < 5 nM; in experiment [4] it was 50 to 500 nM.
For the compound `CCC(=O)c1cnc(Nc2ccn([C@H]3C[C@@H](O)C3)n2)cc1Nc1cccc(-c2ncn(C)n2)c1OC` [Compound 21J], the IC50 was ≥ 500 nM in experiment [1], ≥ 500 nM in experiment [2], 5 to 50 nM in experiment [3] and ≥ 500 nM in experiment [4].
On to `CCC(=O)c1cnc(Nc2ccn([C@H]3C[C@H](OC)C3)n2)cc1Nc1cccc(-c2ncn(C)n2)c1OC` [Compound 21L], for which the IC50 in experiment [1] is ≥ 500 nM; in experiment [2], ≥ 500 nM; in experiment [3], 5 to 50 nM; in experiment [4], ≥ 500 nM.
`CCC(=O)c1cnc(Nc2ccn(CCC#N)n2)cc1Nc1cccc(-c2ncn(C)n2)c1OC` [Compound 21M]: the IC50 in experiment [1] is ≥ 500 nM; in experiment [2] it was ≥ 500 nM; in experiment [3], 5 to 50 nM; in experiment [4] it was 50 to 500 nM.
Regarding `CCC(=O)c1cnc(Nc2ccn([C@H]3C[C@@H](C#N)C3)n2)cc1Nc1cccc(-c2ncn(C)n2)c1OC` [Compound 21N], the IC50 in experiment [1] was ≥ 500 nM; in experiment [2] it was ≥ 500 nM; in experiment [3], 5 to 50 nM; in experiment [4] it was ≥ 500 nM.
Consider `CCC(=O)c1cnc(Nc2cn([C@H]3C[C@@H](O)C3)cn2)cc1Nc1cccc(-c2ncn(C)n2)c1OC` [Compound 21P], for which the IC50 in experiment [1] was ≥ 500 nM; in experiment [2] it was ≥ 500 nM; in experiment [3], 5 to 50 nM; in experiment [4], ≥ 500 nM.
